Source: patent US12662451B2, “Chemical compounds and uses thereof” (GLAXOSMITHKLINE INTELLECTUAL PROPERTY (NO.4) LIMITED, priority 2023, dated 2026)

Biological target: T1, recombinant full-length WRN protein (1-1432) (Homo sapiens, UniProt Q14191)
T1 construct: recombinant full-length WRN protein (1-1432)
Test: WRN unwinding activity, fluorogenic 384-well assay (Example A)
Format: biochemical
Details: WRN unwinding activity, 4 hr; Table 2; read-out: 4 hr UNW pIC50 (converted)
Description: Functional WRN unwinding activity can be measured using a fluorogenic plate based 384 well assay configured to measure the separation of labeled double stranded DNA substrate. Compounds were dosed out in neat DMSO with a 1:3 serial dilution scheme. 100 nL of compound was stamped into Greiner low volume black assay plates (Greiner Cat #784076) using the Echo Acoustic Dispenser to generate assay ready plates. All solutions were prepared in assay buffer (25 mM TRIS (pH8.0), 5 mM NaCl, 2 mM MgCl2, 1 mM DTT, 0.05% BSA) for this 10 μL low volume reaction. To prepare the solutions, a 2×WRN Enzyme cocktail was made containing 200 pM of recombinant full-length WRN protein (1-1432). A 2× Substrate cocktail was made to consist of both 200 μM ATP (any ultrapure ATP sample) and 12 nM of the fluorescent quenched labeled double stranded DNA oligomer (IDT Custom synthesis; 5′-5IABkFQ (SEQ ID NO. 1)/GCACTGGCCGTCGTTTTACGGTCGTGACT-3′ (SEQ ID NO. 2): 5′-TTTTTTACTTAACGACGGCCAGTGC (SEQ ID NO. 3)/36-TAMTSP/-3′ (SEQ ID NO. 4)). To start the reaction, 5 μL of assay buffer was added to a single column to serve as the low control. Following this, 5 μL of 2×WRN Enzyme was added in all wells except the buffer low control wells. The reaction plate was covered and incubated at ambient temperature for 4 hours to allow for time dependent inhibition if it existed. After 4 hours, the addition of 5 μL of 2×-ATP/DNA substrate cocktail was added across all wells of the assay plate. This initiated the reaction, as the plate was incubated at ambient temperature for 60 minutes for the unwinding reaction to occur. A 10 mM EDTA solution was prepared and added at 5 μL across the entire plate after 60 minutes to quench the samples for an endpoint measurement. Fluorescent intensity was measured using excitation and emission wavelengths of 525 nm and 598 nm, respectively. High florescent intensity (DMSO with buffer) represents full inhibition of unwinding activity and low florescent intensity (DMSO with enzyme) represents no inhibition of unwinding activity. The potency of the compounds was determined using a four-parameter inhibition model to generate pIC50, Hill Slope, maximum inhibition (see Table 2).

T1 sequence (Q14191 whole entry): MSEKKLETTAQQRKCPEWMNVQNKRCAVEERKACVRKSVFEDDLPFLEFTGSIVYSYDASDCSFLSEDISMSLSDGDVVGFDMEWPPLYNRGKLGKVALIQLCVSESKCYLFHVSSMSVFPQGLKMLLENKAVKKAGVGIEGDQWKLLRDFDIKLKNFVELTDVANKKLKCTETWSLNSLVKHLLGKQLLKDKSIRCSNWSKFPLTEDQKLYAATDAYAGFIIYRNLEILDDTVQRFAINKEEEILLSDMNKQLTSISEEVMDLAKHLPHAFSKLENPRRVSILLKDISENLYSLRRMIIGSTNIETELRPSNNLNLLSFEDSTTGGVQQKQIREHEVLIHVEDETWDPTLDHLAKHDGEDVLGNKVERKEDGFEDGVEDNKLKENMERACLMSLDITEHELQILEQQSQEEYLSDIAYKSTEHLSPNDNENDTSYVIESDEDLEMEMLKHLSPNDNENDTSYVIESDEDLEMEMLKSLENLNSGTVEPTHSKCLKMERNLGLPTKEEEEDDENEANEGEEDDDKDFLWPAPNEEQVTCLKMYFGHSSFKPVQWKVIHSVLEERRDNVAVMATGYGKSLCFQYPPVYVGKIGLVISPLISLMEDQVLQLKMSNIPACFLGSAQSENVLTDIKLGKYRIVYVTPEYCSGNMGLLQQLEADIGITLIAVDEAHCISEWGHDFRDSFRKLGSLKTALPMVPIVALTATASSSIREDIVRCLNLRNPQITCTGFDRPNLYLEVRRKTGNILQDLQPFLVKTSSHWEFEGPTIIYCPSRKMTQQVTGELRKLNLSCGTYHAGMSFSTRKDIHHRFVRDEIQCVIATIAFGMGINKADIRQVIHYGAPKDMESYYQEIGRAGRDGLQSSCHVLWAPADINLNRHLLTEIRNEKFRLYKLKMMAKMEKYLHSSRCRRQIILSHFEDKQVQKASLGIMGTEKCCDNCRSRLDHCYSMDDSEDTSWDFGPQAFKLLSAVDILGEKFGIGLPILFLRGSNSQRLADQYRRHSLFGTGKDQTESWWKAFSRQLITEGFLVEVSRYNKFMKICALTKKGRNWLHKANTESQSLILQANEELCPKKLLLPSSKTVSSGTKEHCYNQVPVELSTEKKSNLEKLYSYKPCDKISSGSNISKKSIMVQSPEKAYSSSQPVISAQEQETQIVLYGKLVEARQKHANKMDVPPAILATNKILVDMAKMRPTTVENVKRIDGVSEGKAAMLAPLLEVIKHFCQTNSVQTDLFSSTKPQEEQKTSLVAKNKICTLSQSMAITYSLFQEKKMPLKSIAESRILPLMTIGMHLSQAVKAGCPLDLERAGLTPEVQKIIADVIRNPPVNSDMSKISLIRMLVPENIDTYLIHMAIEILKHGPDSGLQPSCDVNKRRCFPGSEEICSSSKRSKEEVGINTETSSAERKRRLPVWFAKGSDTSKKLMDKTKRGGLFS

| IC50 [nM] | SMILES |
| --- | --- |
| 63.1 | Cn1cc(-c2ccc([C@H]3CCC[C@@H](C(=O)Nc4ccc(C(F)(F)F)cc4F)[C@@H]3C(=O)O)cc2)cn1 [Example 12, (1R,2R,6S)-2-((2-fluoro-4-(trifluoromethyl)phenyl)carbamoyl)-6-(4-(1-methyl-1H-pyrazol-4-yl)phenyl)cyclohexane-1-carboxylic acid] |
| 1.58 | O=C(O)[C@@H]1[C@@H](c2ccc(C3=COCCC3)cc2)CCC[C@H]1C(=O)Nc1ccc(C(F)(F)F)cc1F [Example 56, (1R,2S,6R)—2-(4-(3,4-dihydro-2H-pyran-5-yl)phenyl)-6-((2-fluoro-4-(trifluoromethyl)phenyl)carbamoyl)cyclohexane-1-carboxylic acid] |
| 0.501 | CN(c1ccc([C@H]2CCC[C@@H](C(=O)Nc3ccc(C(F)(F)F)cc3F)[C@@H]2C(=O)O)cc1)S(=O)(=O)c1nnc[nH]1 [Example 96, (1R,2R,6S)-2-((2-fluoro-4-(trifluoromethyl)phenyl)carbamoyl)-6-(4-(N-methyl-4H-1,2,4-triazole-3-sulfonamido)phenyl)cyclohexane-1-carboxylic acid] |
| 3.98 | Cc1nc2cc(S(=O)(=O)N(C)c3ccc([C@H]4C[C@]5(CCCO5)C[C@@H](C(=O)Nc5ccc(C(F)(F)F)cc5F)[C@@H]4C(=O)O)cc3)ccc2n1C (stereo in doubt) [Example 388, rel-(5R,7R,8R,9S)-7-((2-fluoro-4-(trifluoromethyl)phenyl)carbamoyl)-9-(4-((N,1,2-trimethyl-1H-benzo[d]imidazole)-5-sulfonamido)phenyl)-1-oxaspiro[4.5]decane-8-carboxylic acid] |
| 398 | Cc1nc2cc(S(=O)(=O)N(C)c3ccc([C@H]4CCC[C@@H](C(=O)N[C@@H]5C[C@@H]6CC(F)(F)C[C@@H]6C5)[C@@H]4C(=O)O)cc3)ccc2n1C [Example 191, (1R,2R,6S)-2-(((2s,3aR,6aS)-5,5-difluorooctahydropentalen-2-yl)carbamoyl)-6-(4-((N,1,2-trimethyl-1H-benzo[d]imidazole)-5-sulfonamido)phenyl)cyclohexane-1-carboxylic acid] |
| 1000 | N#Cc1ccncc1-c1ccc(C2CCCC(C(=O)Nc3ccc(C(F)(F)F)cc3F)[C@@H]2C(=O)O)cc1 (stereo in doubt) [Example 49, (1R,2R,6S)-2-(4-(4-cyanopyridin-3-yl)phenyl)-6-((2-fluoro-4-(trifluoromethyl)phenyl)carbamoyl)cyclohe xane-1-carboxylic acid] |
| 20 | O=C(O)[C@@H]1[C@@H](c2ccc(-c3cnn4c3CCC4)cc2)CCC[C@H]1C(=O)Nc1ccc(C(F)(F)F)cc1F [Example 17, (1R,2S,6R)-2-(4-(5,6-dihydro-4H-pyrrolo[1,2-b]pyrazol-3-yl)phenyl)-6-((2-fluoro-4-(trifluoromethyl)phenyl)carbamoyl)cyclohexane-1-carboxylic acid] |
| 79.4 | Cc1nc2cc(S(=O)(=O)N(C)c3ccc([C@H]4CCC[C@@H](C(=O)Nc5c(F)cc(C(C)C)cc5F)[C@@H]4C(=O)O)cc3)ccc2n1C (single isomer, unassigned) [Example 170] |
| 501 | O=C(O)[C@@H]1[C@@H](c2ccc(N3CCCCC3)cc2)CCC[C@H]1C(=O)Nc1ccc(C(F)(F)F)cc1F (racemic) [Example 222, rac-(1R,2R,6S)-2-((2-fluoro-4-(trifluoromethyl)phenyl)carbamoyl)-6-(4-(piperidin-1-yl)phenyl)cyclohexane-1-carboxylic acid] |
| 631 | Cc1nc2cc(S(=O)(=O)N(C)c3ccc([C@@H]4CNC[C@H](C(=O)Nc5ccc(C(F)(F)F)cc5F)[C@H]4C(=O)O)cc3)ccc2n1C (single isomer, unassigned) [Example 307] |
| 200 | COc1cc(C(F)(F)F)ccc1[C@H]1CCC[C@@H](C(=O)Nc2ccc(C(F)(F)F)cc2F)[C@@H]1C(=O)O (racemic) [Example 237, rac-(1R,2R,6S)-2-((2-fluoro-4-(trifluoromethyl)phenyl)carbamoyl)-6-(2-methoxy-4-(trifluoromethyl)phenyl)cyclohexane-1-carboxylic acid] |
| 1260 | Cc1nc2cc(S(=O)(=O)N(C)c3ccc([C@H]4CCC[C@@H](C(=O)Nc5ccc(C(C)C)cc5)[C@H]4C(=O)O)cc3)ccc2n1C (single isomer, unassigned) [Example 76] |
| 794 | Cc1nc2cc(S(=O)(=O)N3CCOc4cc([C@@H]5CCC[C@H](C(=O)Nc6ccc(C(F)(F)F)cc6F)[C@H]5C(=O)O)ccc43)ccc2n1C (single isomer, unassigned) [Example 242] |
| 1000 | COCCOc1cc([C@H]2CCC[C@@H](C(=O)Nc3ccc(C(F)(F)F)cc3F)[C@@H]2C(=O)O)ccc1C(F)(F)F (racemic) [Example 234, rac-(1R,2R,6S)-2-((2-fluoro-4-(trifluoromethyl)phenyl)carbamoyl)-6-(3-(2-methoxyethoxy)-4-(trifluoromethyl)phenyl)cyclohexane-1-carboxylic acid] |
| 31.6 | CC(=O)N(C)[C@H]1C[C@H](C(=O)Nc2ccc(C(F)(F)F)cc2F)[C@@H](C(=O)O)[C@H](c2ccc(N(C)S(=O)(=O)c3ccc4c(c3)nc(C)n4C)cc2)C1 (stereo in doubt) [Example 293, rel-(1R,2R,4S,6S)-2-((2-fluoro-4-(trifluoromethyl)phenyl)carbamoyl)-4-(N-methylacetamido)-6-(4-((N,1,2-trimethyl-1H-benzo[d]imidazole)-5-sulfonamido)phenyl)cyclohexane-1-carboxylic acid] |
| 10 | Cc1cc(-c2ccc([C@H]3CCC[C@@H](C(=O)Nc4ccc(C(F)(F)F)cc4F)[C@@H]3C(=O)O)cc2)cs1 [Example 47, (1R,2R,6S)-2-((2-fluoro-4-(trifluoromethyl)phenyl)carbamoyl)-6-(4-(5-methylthiophen-3-yl)phenyl)cyclohexane-1-carboxylic acid] |
| 794 | Cc1nc2cc(S(=O)(=O)N(C)c3ccc([C@@H]4C[C@H](OCC5CCC5)C[C@H](C(=O)Nc5ccc(C(F)(F)F)cc5F)[C@H]4C(=O)O)cc3)ccc2n1C (stereo in doubt) [Example 155, rel-(1R,2R,4R,6S)-4-(cyclobutylmethoxy)-2-((2-fluoro-4-(trifluoromethyl)phenyl)carbamoyl)-6-(4-((N,1,2-trimethyl-1H-benzo[d]imidazole)-5-sulfonamido)phenyl)cyclohexane-1-carboxylic acid] |
| 126 | O=C(O)[C@@H]1[C@@H](c2ccc(C3CCCCC3)cc2)CCC[C@H]1C(=O)Nc1ccc(C(F)(F)F)cc1F [Example 62, (1R,2S,6R)-2-(4-cyclohexylphenyl)-6-((2-fluoro-4-(trifluoromethyl)phenyl)carbamoyl)cyclohexane-1-carboxylic acid] |
| 63.1 | Cc1nc2cc(S(=O)(=O)N(C)c3ccc([C@@H]4C[C@H](N(C)C)C[C@H](C(=O)Nc5ccc(C(F)(F)F)cc5F)[C@H]4C(=O)O)cc3)ccc2n1C (stereo in doubt) [Example 252, rel-(1R,2R,4R,6S)-4-(dimethylamino)-2-((2-fluoro-4-(trifluoromethyl)phenyl)carbamoyl)-6-(4-((N,1,2-trimethyl-1H-benzo[d]imidazole)-5-sulfonamido)phenyl)cyclohexane-1-carboxylic acid] |
| 50.1 | O=C(O)[C@@H]1[C@@H](c2ccc([C@H]3CC34CCOCC4)cc2)CCC[C@H]1C(=O)Nc1ccc(C(F)(F)F)cc1F (racemic) [Example 65, 1:1 Mixture of (1R,2S,6R)-2-(4-((S)-6-oxaspiro[2.5]octan-1-yl)phenyl)-6-((2-fluoro-4-(trifluoromethyl)phenyl)carbamoyl)cyclohexane-1-carboxylic acid AND (1R,2S,6R)-2-(4-((R)-6-oxaspiro[2.5]octan-1-yl)phenyl)-6-((2-fluoro-4-(trifluoromethyl)phenyl)carbamoyl)cyclohexane-1-carboxylic acid] |
| 6310 | O=C(O)[C@@H]1[C@@H](c2ccc(-c3ccnc4ccsc34)cc2)CCC[C@H]1C(=O)Nc1ccc(C(F)(F)F)cc1F [Example 44, (1R,2R,6S)-2-((2-fluoro-4-(trifluoromethyl)phenyl)carbamoyl)-6-(4-(thieno[3,2-b]pyridin-7-yl)phenyl)cyclohexane-1-carboxylic acid] |
| 316 | O=C(O)[C@@H]1[C@@H](c2ccc(C3CCS(=O)(=O)C3)cc2)CCC[C@H]1C(=O)Nc1ccc(C(F)(F)F)cc1F (single isomer, unassigned) [Example 231, (1R,2S,6R)-2-(4-((R*)-1,1-dioxidotetrahydrothiophen-3-yl)phenyl)-6-((2-fluoro-4-(trifluoromethyl)phenyl)carbamoyl)cyclohexane-1-carboxylic acid] |
